Laboratory results published in US9845292B2 (Max-Planck-Gesellschaft zur Förderung der Wissenschaften …, priority 2013, dated 2017).
Read-outs that look alike come from different tables or passages of the source.

Experiments:
FKBP52 = target: T1, FKBP52 (Homo sapiens, UniProt Q02790); test: Fluorescence polarization binding assay, FK1-domain of FKBP52WT with tracer F2 (selectivity FKBP51 vs. FKBP52); conditions: selectivity factor over FKBP52
T1 construct: Purified FK1-domains of FKBP51WT (4.5 nM) with F4 (3 nM), FKBP52WT (400 nM) with F2 (20 nM); implied by Ni-NTA purification) (N); made in house; host or cells: E. coli BL21(DE3)pLysS
T1 sequence (Q02790 50-138 limits assumed): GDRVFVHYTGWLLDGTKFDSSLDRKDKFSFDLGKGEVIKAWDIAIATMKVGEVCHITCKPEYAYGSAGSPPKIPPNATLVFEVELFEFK
Method: (§1) The target protein was also diluted in this assay buffer at double the highest concentration required for the final sample. This protein stock was used for a 1:1 serial dilution.
(§2) The inventive compound was dissolved in DMSO to reach a 100-times concentrated stock solution. This was used for a 1:1 serial dilution in DMSO.
(§3) For FKBP12, −51, and −52 the binding assays were performed in duplicates in the plate format.
(§4) The competition curves were analyzed by using SigmaPlot9. Data were fitted to a four parameter logistic curve to deduce the IC50 values. […] A=(Amax−Amin)/[L]t×(([L]t×((2×((Klig+Kcomp+[L]t+[I]t−[R]t)^2−3×(Kcomp×([L]t−[R]t)+Klig×([I]t−[R]t)+Klig×Kcomp))^0.5×COS(ARCCOS((−2×(Klig+Kcomp+[L]t+[I]t−[R]t)^3+9×(Klig+Kcomp+[L]t+[I]t−[R]t)×(Kcomp×([L]t−[R]t)+Klig×([I]t−[R]t)+Klig×Kcomp)−27×(−1×Klig×Kcomp×[R]t))/(2×((((Klig+Kcomp+[L]t+[I]t−[R]t)^2−3×(Kcomp×([L]t−[R]t)+Klig×([I]t−[R]t)+Klig×Kcomp))^3)^0.5)))/3))−(Klig+Kcomp+[L]t+[I]t−[R]t)))/((3×Klig)+((2×((Klig+Kcomp+[L]t+[I]t−[R]t)^2−3×(Kcomp×([L]t−[R]t)+Klig×([I]t−[R]t)+Klig×Kcomp))^0.5×COS(ARCCOS((−2×(Klig+Kcomp+[L]t+[I]t−[R]t)^3+9×(Klig+Kcomp+[L]t+[I]t−[R]t)×(Kcomp×([L]t−[R]t)+Klig×([I]t−[R]t)+Klig×Kcomp)−27×(−1×Klig×Kcomp×[R]t))/(2×((((Klig+Kcomp+[L]t+[I]t−[R]t)^2−3×(Kcomp×([L]t−[R]t)+Klig×([I]t−[R]t)+Klig×Kcomp))^3)^0.5)))/3))−(Klig+Kcomp+[L]t+[I]t−[R]t))))+Amin
(§5) In this equation Klig and Kcomp stand for the Kd values of the used tracer or competing inhibitor, [I]t is referring to the total concentration of the titrated inhibitor.
The Selectivity of the Compounds was Classified by Ki(FKBP51)/Ki(FKBP52)
(§6) Inhibition constants were measured in a fluorescence polarization binding assay by titrating the compounds.

FKBP51 = target: T2, FKBP51 (Homo sapiens, UniProt Q13451); test: Fluorescence polarization binding assay, FK1-domain of FKBP51WT with tracer F4; parameters: Purified FK1-domains of FKBP51WT (4.5 nM) with F4 (3 nM), FKBP52WT (400 nM) with F2 (20 nM); made in house; host or cells: E. coli BL21(DE3)pLysS; conditions: read-out: Affinity(Ki) for FKBP51
T2 sequence (Q13451 42-130 limits assumed): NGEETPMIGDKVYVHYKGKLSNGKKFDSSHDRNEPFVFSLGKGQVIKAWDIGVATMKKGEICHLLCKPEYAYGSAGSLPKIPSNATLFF
Method: as §1, §2, §3, §4, §5, §6

[1] = FKBP52WT (400 nM) with F2 (20 nM), A series
[2] = FK1-domain of FKBP51WT (4.5 nM) with F4 (3 nM), A series

## COc1ccc(CCC(OC(=O)[C@@H]2CCCCN2C(=O)C(NC(=O)c2ccccc2O)C2CCCCC2)c2cccc(OCC(=O)O)c2)cc1OC (stereo partly drawn) [Compound A24, 2-(3-(1-(((2S)-1-(2-cyclohexyl-2-(2-hydroxybenzamido)acetyl)piperidine-2-carbonyl)oxy)-3-(3,4-dimethoxyphenyl)propyl)phenoxy)acetic acid]
FKBP52; [1]
  Ki(FKBP51)/Ki(FKBP52): + (>5 +)
FKBP51; [2]
  Ki: 10 to 50 µM

## COc1ccc(CCC(OC(=O)[C@@H]2CCCCN2C(=O)C(NC(=O)c2ccccn2)C2CCCCC2)c2cccc(OCC(=O)O)c2)cc1OC (stereo partly drawn) [Compound A25, 2-(3-(1-(((2S)-1-(2-cyclohexyl-2-(picolinamido)acetyl)piperidine-2-carbonyl)oxy)-3-(3,4-dimethoxyphenyl)propyl)phenoxy) acetic acid]
FKBP52; [1]
  Ki(FKBP51)/Ki(FKBP52): + (>5 +)
FKBP51; [2]
  Ki: 10 to 50 µM

## COc1ccc(CCC(OC(=O)[C@@H]2CCCCN2C(=O)C(NC(=O)C2CCCCC2)C2CCCCC2)c2cccc(OCC(=O)O)c2)cc1OC (stereo partly drawn) [Compound A26, 2-(3-(1-(((2S)-1-(2-(cyclohexanecarboxamido)-2-cyclohexylacetyl)piperidine-2-carbonyl)oxy)-3-(3,4-dimethoxyphenyl)propyl)phenoxy)acetic acid]
FKBP52; [1]
  Ki(FKBP51)/Ki(FKBP52): + (>5 +)
FKBP51; [2]
  Ki: 10 to 50 µM

## COc1ccc(CCC(OC(=O)[C@@H]2CCCCN2C(=O)C(NC(=O)C2N=CN=N2)C2CCCCC2)c2cccc(OCC(=O)O)c2)cc1OC (stereo partly drawn) [Compound A27, 2-(3-(1-(((2S)-1-(2-cyclohexyl-2-(3H-1,2,4-triazole-3-carboxamido)acetyl)piperidine-2-carbonyl)oxy)-3-(3,4-dimethoxyphenyl)propyl)phenoxy)acetic acid]
FKBP52; [1]
  Ki(FKBP51)/Ki(FKBP52): + (>5 +)
FKBP51; [2]
  Ki: 10 to 50 µM

## COc1ccc(CCC(OC(=O)[C@@H]2CCCCN2C(=O)C(NC(=O)c2cc(Cl)cc(Cl)c2)C2CCCCC2)c2cccc(OCC(=O)O)c2)cc1OC (stereo partly drawn) [Compound A28, 2-(3-(1-(((2S)-1-(2-cyclohexyl-2-(3,5-dichlorobenzamido)acetyl)piperidine-2-carbonyl)oxy)-3-(3,4-dimethoxyphenyl)propyl)phenoxy)acetic acid]
FKBP52; [1]
  Ki(FKBP51)/Ki(FKBP52): + (>5 +)
FKBP51; [2]
  Ki: 10 to 50 µM

## COc1ccc(CC[C@@H](OC(=O)[C@@H]2CCCCN2C(=O)[C@H](c2cccc(F)c2)C2CCCCC2)c2cccc(OCC(=O)O)c2)cc1OC [Compound A36, 2-(3-((R)-1-(((S)-1-((S)-2-cyclohexyl-2-(3-fluorophenyl)acetyl)piperidine-2-carbonyl)oxy)-3-(3,4-dimethoxyphenyl)propyl)phenoxy)acetic acid]
FKBP52; [1]
  Ki(FKBP51)/Ki(FKBP52): +++ (>500 +++)
FKBP51; [2]
  Ki: 1 to 10 µM

## COc1cc([C@@H](C(=O)N2CCCC[C@H]2C(=O)N[C@@H](C)C(N)=O)C2CCCCC2)cc(OC)c1OC [Compound B01, (S)-N-((S)-1-amino-1-oxopropan-2-yl)-1-((S)-2-cyclohexyl-2-(3,4,5-trimethoxyphenyl)acetyl)piperidine-2-carboxamide]
FKBP52; compounds B01-C25
  Ki(FKBP51)/Ki(FKBP52): ++ (>50 ++)
FKBP51; compounds B01-C25
  Ki: 1 to 10 µM

## COc1cc([C@@H](C(=O)N2CCCC[C@H]2C(=O)N[C@H](C)C(N)=O)C2CCCCC2)cc(OC)c1OC [Compound B02, (S)-N-((R)-1-amino-1-oxopropan-2-yl)-1-((S)-2-cyclohexyl-2-(3,4,5-trimethoxyphenyl)acetyl)piperidine-2-carboxamide]
FKBP52; compounds B01-C25
  Ki(FKBP51)/Ki(FKBP52): ++ (>50 ++)
FKBP51; compounds B01-C25
  Ki: 1 to 10 µM

## COc1cc([C@@H](C(=O)N2CCCC[C@H]2C(=O)N[C@H](C(N)=O)C(C)C)C2CCCCC2)cc(OC)c1OC [Compound B03, (S)-N-((S)-1-amino-3-methyl-1-oxobutan-2-yl)-1-((S)-2-cyclohexyl-2-(3,4,5-trimethoxyphenyl)acetyl)piperidine-2-carboxamide]
FKBP52; compounds B01-C25
  Ki(FKBP51)/Ki(FKBP52): + (>5 +)
FKBP51; compounds B01-C25
  Ki: 10 to 50 µM

## COc1cc([C@@H](C(=O)N2CCCC[C@H]2C(=O)N[C@@H](C(N)=O)C(C)C)C2CCCCC2)cc(OC)c1OC [Compound B04, (S)-N-((R)-1-amino-3-methyl-1-oxobutan-2-yl)-1-((S)-2-cyclohexyl-2-(3,4,5-trimethoxyphenyl)acetyl)piperidine-2-carboxamide]
FKBP52; compounds B01-C25
  Ki(FKBP51)/Ki(FKBP52): + (>5 +)
FKBP51; compounds B01-C25
  Ki: 1 to 10 µM

## COc1cc([C@@H](C(=O)N2CCCC[C@H]2C(=O)N[C@@H](Cc2ccccc2)C(N)=O)C2CCCCC2)cc(OC)c1OC [Compound B05, (S)-N-((S)-1-amino-1-oxo-3-phenylpropan-2-yl)-1-((S)-2-cyclohexyl-2-(3,4,5-trimethoxyphenyl)acetyl)piperidine-2-carboxamide]
FKBP52; compounds B01-C25
  Ki(FKBP51)/Ki(FKBP52): ++ (>50 ++)
FKBP51; compounds B01-C25
  Ki: 1 to 10 µM

## COc1cc([C@@H](C(=O)N2CCCC[C@H]2C(=O)N[C@H](Cc2ccccc2)C(N)=O)C2CCCCC2)cc(OC)c1OC [Compound B06, (S)-N-((R)-1-amino-1-oxo-3-phenylpropan-2-yl)-1-((S)-2-cyclohexyl-2-(3,4,5-trimethoxyphenyl)acetyl)piperidine-2-carboxamide]
FKBP52; compounds B01-C25
  Ki(FKBP51)/Ki(FKBP52): ++ (>50 ++)
FKBP51; compounds B01-C25
  Ki: 1 to 10 µM

## COc1cc([C@@H](C(=O)N2CCCC[C@H]2C(=O)N[C@@H](CC2CCCCC2)C(N)=O)C2CCCCC2)cc(OC)c1OC [Compound B07, (S)-N-((S)-1-amino-3-cyclohexyl-1-oxopropan-2-yl)-1-((S)-2-cyclohexyl-2-(3,4,5-trimethoxyphenyl)acetyl)piperidine-2-carboxamide]
FKBP52; compounds B01-C25
  Ki(FKBP51)/Ki(FKBP52): + (>5 +)
FKBP51; compounds B01-C25
  Ki: 10 to 50 µM

## COc1cc([C@@H](C(=O)N2CCCC[C@H]2C(=O)N[C@@H](CCc2ccccc2)C(N)=O)C2CCCCC2)cc(OC)c1OC [Compound B08, (S)-N-((S)-1-amino-1-oxo-4-phenylbutan-2-yl)-1-((S)-2-cyclohexyl-2-(3,4,5-trimethoxyphenyl)acetyl)piperidine-2-carboxamide]
FKBP52; compounds B01-C25
  Ki(FKBP51)/Ki(FKBP52): ++ (>50 ++)
FKBP51; compounds B01-C25
  Ki: 1 to 10 µM

## COc1cc([C@@H](C(=O)N2CCCC[C@H]2C(=O)N[C@@H](CCC2CCCCC2)C(N)=O)C2CCCCC2)cc(OC)c1OC [Compound B09, (S)-N-((S)-1-amino-4-cyclohexyl-1-oxobutan-2-yl)-1-((S)-2-cyclohexyl-2-(3,4,5-trimethoxyphenyl)acetyl)piperidine-2-carboxamide]
FKBP52; compounds B01-C25
  Ki(FKBP51)/Ki(FKBP52): ++ (>50 ++)
FKBP51; compounds B01-C25
  Ki: 10 to 50 µM

## COc1cc([C@@H](C(=O)N2CCCC[C@H]2C(=O)NCC(N)=O)C2CCCCC2)cc(OC)c1OC [Compound B10, (S)-N-(2-amino-2-oxoethyl)-1-((S)-2-cyclohexyl-2-(3,4,5-trimethoxyphenyl)acetyl)piperidine-2-carboxamide]
FKBP52; compounds B01-C25
  Ki(FKBP51)/Ki(FKBP52): + (>5 +)
FKBP51; compounds B01-C25
  Ki: 10 to 50 µM

## COc1cc([C@@H](C(=O)N2CCCC[C@H]2C(=O)NC(C)(C)C(N)=O)C2CCCCC2)cc(OC)c1OC [Compound B11, (S)-N-(1-amino-2-methyl-1-oxopropan-2-yl)-1-((S)-2-cyclohexyl-2-(3,4,5-trimethoxyphenyl)acetyl)piperidine-2-carboxamide]
FKBP52; compounds B01-C25
  Ki(FKBP51)/Ki(FKBP52): +++ (>500 +++)
FKBP51; compounds B01-C25
  Ki: 1 to 10 µM

## CC[C@H](NC(=O)[C@@H]1CCCCN1C(=O)[C@H](c1cc(OC)c(OC)c(OC)c1)C1CCCCC1)C(N)=O [Compound B12, (S)-N-((S)-1-amino-1-oxobutan-2-yl)-1-((S)-2-cyclohexyl-2-(3,4,5-trimethoxyphenyl)acetyl)piperidine-2-carboxamide]
FKBP52; compounds B01-C25
  Ki(FKBP51)/Ki(FKBP52): ++ (>50 ++)
FKBP51; compounds B01-C25
  Ki: 1 to 10 µM

## CC[C@@H](NC(=O)[C@@H]1CCCCN1C(=O)[C@H](c1cc(OC)c(OC)c(OC)c1)C1CCCCC1)C(N)=O [Compound B13, (S)-N-((R)-1-amino-1-oxobutan-2-yl)-1-((S)-2-cyclohexyl-2-(3,4,5-trimethoxyphenyl)acetyl)piperidine-2-carboxamide]
FKBP52; compounds B01-C25
  Ki(FKBP51)/Ki(FKBP52): ++ (>50 ++)
FKBP51; compounds B01-C25
  Ki: 1 to 10 µM
